These results are taken from US20090246169A1, “INDOLOPYRIDINES AS EG5 KINESIN MODULATORS” (priority 2006, published 2009).

A value given as a limit tells only on which side of the number the result lay.

The subject of the test is RKO p21 colon adenocarcinoma cells, uninduced (proliferating). The experiment in a line: Alamar Blue cell viability assay, RKO p21 uninduced (proliferating). The format is cell-based. The following applies: Homo sapiens; anti-proliferative/cytotoxic activity, 72 hours, without Ponasterone A; read-out: −log EC50 [mol/l] RKO p21 uninduced (proliferating) (converted). As for the experimental part:
The anti-proliferative/cytotoxic activity of the compounds described herein can be tested on subclones of RKO human colon adenocarcinoma cells (Schmidt et al., Oncogene 19, 2423-2429; 2000) using the Alamar Blue cell viability assay (described in O'Brien et al. Eur J Biochem 267, 5421-5426, 2000). The compounds are dissolved as 10 mM solutions in DMSO and subsequently diluted in semi-logarithmic steps. DMSO dilutions are further diluted 1:100 into Dulbecco's modified Eagle's medium (DMEM) containing 10% fetal calf serum to a final concentration twice as much as the final concentration in the test. RKO subclones are seeded into 96 well flat bottom plates at a density of 4000 cells per well in a volume of 50 μl per well. 24 hours after seeding the 50 μl each of the compound dilutions in DMEM medium are added into each well of the 96 well plate. Each compound dilution is tested as triplicates. Wells containing untreated control cells are filled with 50 μl DMEM medium containing 1% DMSO. The cells are then incubated with the substances for 72 hours at 37° C. in a humidified atmosphere containing 5% carbon dioxide. To determine the viability of the cells, 10 μl of an Alamar Blue solution (Biosource) are added and the fluorescence is measured at an extinction of 544 nm and an emission of 590 nm. For the calculation of the cell viability the emission value from untreated cells is set as 100% viability and the emission rates of treated cells are set in relation to the values of untreated cells. Viabilities are expressed as % values. The Graphpad Prism program is used for the calculation of EC50 values for anti-proliferative/cytotoxic activity out of the obtained dose-response curves.
To determine the cell cycle specific mode of action, subclones of RKO colon adenocarcinoma cells (RKOp21 or RKOp27 as described by Schmidt et al. in Oncogene 19, 2423-2429; 2000) are seeded into 96 well flat bottom plates at a density of 16000 cells per well in a volume of 50 μl per well in DMEM growth medium with 10% FCS containing 10 μM Ponasterone A. 24 hours after seeding the 50 μl each of the compound dilutions in DMEM medium are added into each well of the 96-well plate. Each compound dilution is tested as triplicates. Wells containing untreated control cells are filled with 50 μl DMEM medium containing 1% DMSO. The cells are then incubated with the substances for 72 hours at 37° C. in a humidified atmosphere containing 5% carbon dioxide. To determine the viability of the cells, 10 μl of an Alamar Blue solution (Biosource) are added and the fluorescence is measured at an extinction of 544 nm and an emission of 590 nm. For the calculation of the cell viability the emission value from untreated cells is set as 100% viability and the emission rates of treated cells are set in relation to the values of untreated cells. Viabilities are expressed as % values. The Graphpad Prism program (GraphPad Software, Inc) is used for the calculation of EC50 values out of the obtained dose-response curves. Viability is compared of proliferating cells grown in the absence of the inducer Ponasterone A, versus viability of cells arrested by the expression of ectopic p27Kip1 induced by Ponasterone A.
Representative values for anti-proliferation/cytotoxicity [measured as −log EC50 (mol/l)] determined in the aforementioned assays follow from the following tables B1 and B2, in which the numbers of the compounds correspond to the numbers of the examples.
In general terms: Alamar Blue is a resazurin reagent that responds to reducing activity.
As to `COc1ccc2[nH]c3c(c2c1)C[C@@]1(C)C(=O)N(CCN(C)C(C)C)C(=O)N1[C@@H]3c1ccccc1` (racemic) [Example 39, (3aSR, 10RS)-2-[2-(Isopropyl-methyl-amino)-ethyl]-6-methoxy-3a-methyl-10-phenyl-3a,4,9,10-tetra-hydro-2,9,10a-triaza-cyclo-penta[b]fluorene-1,3-dione], the EC50 is at most 1000 nM. The same measure for `CC[C@@]12Cc3c([nH]c4ccc(OC)cc34)[C@@H](c3ccccc3)N1C(=O)N(CCCN(C)C)C2=O` (racemic) [Example 6, (3aSR,10RS)-2-(3-Dimethylamino-propyl)-3a-ethyl-6-methoxy-10-phenyl-3a,4,9,10-tetrahydro-2,9,10a-triaza-cyclopenta[b]fluorene-1,3-dione]: at most 1000 nM. Regarding `C#CCNCCN1C(=O)N2[C@H](c3ccccc3)c3[nH]c4ccc(OC)cc4c3C[C@@]2(C)C1=O` (racemic) [Example 29, (3aSR, 10RS)-6-Methoxy-3a-methyl-10-phenyl-2-(2-prop-2-ynylamino-ethyl)-3a,4,9,10-tetrahydro-2,9,10a-triaza-cyclopenta[b]fluorene-1,3-dione], the EC50 is at most 1000 nM. The same measure for `COc1ccc2[nH]c3c(c2c1)C[C@@]1(C)C(=O)N(CCNCC2CC2)C(=O)N1[C@@H]3c1ccccc1` (racemic) [Example 25, (3aSR, 10RS)-2-[2-(Cyclo-propylmethyl-amino)-ethyl]-6-methoxy-3a-methyl-10-phenyl-3a,4,9,10-tetrahydro-2,9,10a-triaza-cyclopenta [b]fluorene-1,3-dione]: at most 1000 nM; for `COc1ccc2[nH]c3c(c2c1)C[C@@]1(C)C(=O)N(CCCN)C(=O)N1[C@@H]3c1ccccc1` (racemic) [Example 7, (3aSR,10RS)-2-(3-Amino-propyl)-6-methoxy-3a-methyl-10-phenyl-3a,4,9,10-tetrahydro-2,9,10a-triaza-cyclopenta[b]fluorene-1,3-dione]: at most 1000 nM; for `COc1ccc2[nH]c3c(c2c1)C[C@@]1(C)C(=O)N(CCN2CCC2)C(=O)N1[C@@H]3c1ccccc1` (racemic) [Example 16, (3aSR,10RS)-2-(2-Azetidin-1-yl-ethyl)-6-methoxy-3a-methyl-10-phenyl-3a,4,9,10-tetrahydro-2,9,10a-triaza-cyclopenta[b]fluorene-1,3-dione]: at most 1000 nM.

With `COc1ccc2[nH]c3c(c2c1)C[C@@]1(C)C(=O)N(CCCN(C)C(C)C)C(=O)N1[C@@H]3c1ccccc1` (racemic) [Example 59, (3aSR, 10RS)-2-[3-(Isopropyl-methyl-amino)-propyl]-6-methoxy-3a-methyl-10-phenyl-3a,4,9,10-tetra-hydro-2,9,10a-triaza-cyclo-penta[b]fluorene-1,3-dione], the EC50 was at most 1000 nM. Consider `CCN(CCO)CCN1C(=O)N2[C@H](c3ccccc3)c3[nH]c4ccc(OC)cc4c3C[C@@]2(C)C1=O` (racemic) [Example 36, (3aSR, 10RS)-2-{2-[Ethyl-(2-hydroxy-ethyl)-amino]-ethyl}-6-methoxy-3a-methyl-10-phenyl-3a,4,9,10-tetra-hydro-2,9,10a-triaza-cyclo-penta[b]fluorene-1,3-dione], for which the EC50 was at most 1000 nM.

In the case of `COc1ccc2[nH]c3c(c2c1)C[C@@]1(C)C(=O)N(CCCN2CC=CCC2)C(=O)N1[C@@H]3c1ccccc1` (racemic) [Example 67, (3aSR, 10RS)-2-[3-(3,6-Dihydro-2H-pyridin-1-yl)-propyl]-6-methoxy-3a-methyl-10-phenyl-3a,4,9,10-tetra-hydro-2,9,10a-triaza-cyclo-penta[b]fluorene-1,3-dione], the EC50 is at most 1000 nM. With `CCNCCN1C(=O)N2[C@H](c3ccccc3)c3[nH]c4ccc(OC)cc4c3C[C@@]2(C)C1=O` (racemic) [Example 15, (3aSR,10RS)-2-(2-Ethylamino-ethyl)-6-methoxy-3a-methyl-10-phenyl-3a,4,9,10-tetrahydro-2,9,10a-triaza-cyclopenta[b]fluorene-1,3-dione], the EC50 is at most 1000 nM. `COc1ccc2[nH]c3c(c2c1)C[C@@]1(C)C(=O)N(CCCN2CCCC2)C(=O)N1[C@@H]3c1ccccc1` (racemic) [Example 62, (3aSR, 10RS)-6-Methoxy-3a-methyl-10-phenyl-2-(3-pyrrolidin-1-yl-propyl)-3a,4,9,10-tetrahydro-2,9,10a-triaza-cyclopenta[b]fluorene-1,3-dione]: the EC50 was at most 1000 nM. Consider `CCN(CC)CCN1C(=O)N2[C@H](c3ccccc3)c3[nH]c4ccc(OC)cc4c3C[C@@]2(C)C1=O` (racemic) [Example 41, (3aSR, 10RS)-2-(2-Diethyl-amino-ethyl)-6-methoxy-3a-methyl-10-phenyl-3a,4,9,10-tetrahydro-2,9,10a-triaza-cyclopenta[b]fluorene-1,3-dione], for which the EC50 was at most 1000 nM.

As to `COc1ccc2[nH]c3c(c2c1)C[C@@]1(C)C(=O)N(CCNC2CC2)C(=O)N1[C@@H]3c1ccccc1` (racemic) [Example 49, (3aSR, 10RS)-2-(2-Cyclo-propylamino-ethyl)-6-methoxy-3a-methyl-10-phenyl-3a,4,9,10-tetrahydro-2,9,10a-triaza-cyclopenta [b]fluorene-1,3-dione], the EC50 is at most 1000 nM. In the case of `COc1ccc2[nH]c3c(c2c1)C[C@@]1(C)C(=O)N(CCCNCC2CC2)C(=O)N1[C@@H]3c1ccccc1` (racemic) [Example 74, (3aSR, 10RS)-2-[3-(Cyclo-propylmethyl-amino)-propyl]-6-methoxy-3a-methyl-10-phenyl-3a,4,9,10-tetrahydro-2,9,10a-triaza-cyclopenta[b] fluorene-1,3-dione], the EC50 is at most 1000 nM. Turning to `COc1ccc2[nH]c3c(c2c1)C[C@@]1(C)C(=O)N(CCCN2CCCCC2)C(=O)N1[C@@H]3c1ccccc1` (racemic) [Example 65, (3aSR, 10RS)-6-Methoxy-3a-methyl-10-phenyl-2-(3-piperidin-1-yl-propyl)-3a,4,9,10-tetrahydro-2,9,10a-triaza-cyclopenta[b]fluorene-1,3-dione], the EC50 was at most 1000 nM.

`COc1ccc2[nH]c3c(c2c1)C[C@@]1(C)C(=O)N(CCN2CCCCC2)C(=O)N1[C@@H]3c1ccccc1` (racemic) [Example 32, (3aSR, 10RS)-6-Methoxy-3a-methyl-10-phenyl-2-(2-piperidin-1-yl-ethyl)-3a,4,9,10-tetrahydro-2,9,10a-triaza-cyclopenta[b]fluorene-1,3-dione]: the EC50 was at most 1000 nM. To `CCN(CCCN1C(=O)N2[C@H](c3ccccc3)c3[nH]c4ccc(OC)cc4c3C[C@@]2(C)C1=O)CCOC` (racemic) [Example 56, (3aSR, 10RS)-2-{3-[Ethyl-(2-methoxy-ethyl)-amino]-propyl}-6-methoxy-3a-methyl-10-phenyl-3a,4,9,10-tetrahydro-2,9,10a-triaza-cyclopenta[b]fluorene-1,3-dione] belongs at most 1000 nM; to `COc1ccc2[nH]c3c(c2c1)C[C@@]1(C)C(=O)N(CCN2CCCCCC2)C(=O)N1[C@@H]3c1ccccc1` (racemic) [Example 43, (3aSR, 10RS)-2-(2-Azepan-1-yl-ethyl)-6-methoxy-3a-methyl-10-phenyl-3a,4,9,10-tetrahydro-2,9,10a-triaza-cyclopenta[b]fluorene-1,3-dione], at most 1000 nM.
